Results reported in PMC4942689, “Deciphering the function of the CNGB1b subunit in olfactory CNG channels” (Scientific Reports, 2016).

Assays:
CNGA2RE:B1b = biological target: T1, CNGA2RE:B1b (Rattus norvegicus, UniProt A0A8I5ZN27+Q00195, R538E); experiment: Ligand binding, confocal patch-clamp fluorometry; set-up: key to Ligand binding to CNGB1b: +: ligand binding to the respective modulatory subunits was either observed or not; −: ligand binding to the respective modulatory subunits was either observed or not; settings: for Ligand binding to CNGB1b: construct CNGA2RE:B1b
T1 construct: expressed in transfected cells; host or cells: Xenopus laevis oocytes (cRNA injection), excised patches
T1 sequence (Q00195 whole entry R538E): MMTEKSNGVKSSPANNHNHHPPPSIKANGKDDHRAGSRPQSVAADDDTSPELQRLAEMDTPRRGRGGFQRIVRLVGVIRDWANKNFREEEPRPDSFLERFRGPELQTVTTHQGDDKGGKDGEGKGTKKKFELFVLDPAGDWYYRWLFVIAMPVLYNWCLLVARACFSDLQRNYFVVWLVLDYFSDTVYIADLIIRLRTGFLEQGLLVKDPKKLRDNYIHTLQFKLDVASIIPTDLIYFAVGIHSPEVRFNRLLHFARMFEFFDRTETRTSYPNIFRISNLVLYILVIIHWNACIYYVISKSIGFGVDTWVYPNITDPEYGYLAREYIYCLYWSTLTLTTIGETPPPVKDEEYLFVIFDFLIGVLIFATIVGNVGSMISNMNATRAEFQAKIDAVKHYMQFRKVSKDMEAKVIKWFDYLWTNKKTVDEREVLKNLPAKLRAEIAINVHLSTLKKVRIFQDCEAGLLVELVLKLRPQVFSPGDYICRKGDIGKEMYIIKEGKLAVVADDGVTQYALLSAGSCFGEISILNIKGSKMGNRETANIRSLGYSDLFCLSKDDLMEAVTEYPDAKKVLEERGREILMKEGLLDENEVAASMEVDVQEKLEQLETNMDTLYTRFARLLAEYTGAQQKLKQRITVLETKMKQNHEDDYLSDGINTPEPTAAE
T1 sequence (A0A8I5ZN27 1-858 isoform A0A8I5ZN27-2, stated change not applied): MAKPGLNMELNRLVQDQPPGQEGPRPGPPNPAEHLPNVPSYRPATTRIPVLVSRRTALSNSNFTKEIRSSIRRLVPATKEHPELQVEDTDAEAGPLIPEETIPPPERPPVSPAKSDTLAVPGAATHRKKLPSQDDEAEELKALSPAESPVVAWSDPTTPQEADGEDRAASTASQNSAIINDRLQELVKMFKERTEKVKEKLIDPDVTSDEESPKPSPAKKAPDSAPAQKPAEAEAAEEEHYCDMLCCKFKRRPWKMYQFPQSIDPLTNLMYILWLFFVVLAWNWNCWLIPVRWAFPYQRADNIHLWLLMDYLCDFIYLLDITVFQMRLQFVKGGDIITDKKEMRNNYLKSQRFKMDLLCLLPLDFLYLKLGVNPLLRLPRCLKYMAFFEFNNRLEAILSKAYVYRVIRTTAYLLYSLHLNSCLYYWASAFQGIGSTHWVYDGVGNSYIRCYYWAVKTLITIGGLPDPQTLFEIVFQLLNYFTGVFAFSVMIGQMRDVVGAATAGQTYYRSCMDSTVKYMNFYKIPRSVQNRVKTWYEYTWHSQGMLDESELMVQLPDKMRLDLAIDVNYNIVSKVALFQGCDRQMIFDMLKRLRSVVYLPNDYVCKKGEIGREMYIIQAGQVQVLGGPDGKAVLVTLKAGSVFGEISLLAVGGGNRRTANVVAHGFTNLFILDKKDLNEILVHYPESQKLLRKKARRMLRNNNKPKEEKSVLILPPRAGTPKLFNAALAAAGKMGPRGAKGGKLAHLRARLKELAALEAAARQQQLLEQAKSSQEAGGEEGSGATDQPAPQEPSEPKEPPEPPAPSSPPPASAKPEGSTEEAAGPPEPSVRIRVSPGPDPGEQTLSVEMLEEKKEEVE
Description: (§1) The channels to be studied were expressed in Xenopus oocytes. We first tested the subunit composition in our channels when coexpressing different combinations of subunits by single-channel recordings. For CNGA2:A4, CNGA2:B1b and CNGA2:A4:B1b channels we exclusively obtained the specific and easily distinguishable single-channel activity reported earlier when injecting respective amounts of RNA[7][13]. We therefore assumed that the channels formed had always the expected subunit composition. The specific binding of cyclic nucleotides and the activation of the CNG channels were measured in parallel by means of confocal patch-clamp fluorometry in excised patches, using fluorescent cyclic nucleotide derivatives. The method has been described previously.
To study ligand binding to the CNGB1b subunit selectively, the binding domain of the CNGA2 subunits was disabled by either the point mutation R538E (red crosses in the cartoons) or T539M (blue crosses in the cartoons)[13][20]. […] To this end, CNGB1b was coexpressed with CNGA2RE.
(§2) The ligand binding was measured in macropatches by patch-clamp fluorometry[41][42] combined with confocal microscopy. […] Recordings were performed with an LSM 510 or 710 confocal microscope (Zeiss, Jena, Germany) and were triggered by the ISO3 software (MFK, Niedernhausen, Germany). To distinguish between the fluorescence of the unbound ligands from that of the bound ligands, a second dye, DY647 (Dyomics, Jena, Germany), was added to the bath solution. The 543-nm and 633-nm lines of a He-Ne laser were used to excite fcAMP/fcGMP and DY647, respectively. The method of confocal patch-clamp fluorometry has been described in detail previously.

CNGA2RE:A4RE:B1b [1] = biological target: T2, CNGA2RE:A4RE:B1b (Rattus norvegicus, UniProt A0A8I5ZN27+Q00195+Q64359, R430E/R538E); experiment: Ligand binding, confocal patch-clamp fluorometry; set-up: key to Ligand binding to CNGA4 / Ligand binding to CNGB1b: +: ligand binding to the respective modulatory subunits was either observed or not; −: ligand binding to the respective modulatory subunits was either observed or not
T2 construct: expressed in transfected cells; host or cells: Xenopus laevis oocytes (cRNA injection), excised inside-out patches
T2 sequence (Q00195 whole entry R538E): as the sequence (Q00195 whole entry R538E) above
T2 sequence (Q64359 whole entry R430E): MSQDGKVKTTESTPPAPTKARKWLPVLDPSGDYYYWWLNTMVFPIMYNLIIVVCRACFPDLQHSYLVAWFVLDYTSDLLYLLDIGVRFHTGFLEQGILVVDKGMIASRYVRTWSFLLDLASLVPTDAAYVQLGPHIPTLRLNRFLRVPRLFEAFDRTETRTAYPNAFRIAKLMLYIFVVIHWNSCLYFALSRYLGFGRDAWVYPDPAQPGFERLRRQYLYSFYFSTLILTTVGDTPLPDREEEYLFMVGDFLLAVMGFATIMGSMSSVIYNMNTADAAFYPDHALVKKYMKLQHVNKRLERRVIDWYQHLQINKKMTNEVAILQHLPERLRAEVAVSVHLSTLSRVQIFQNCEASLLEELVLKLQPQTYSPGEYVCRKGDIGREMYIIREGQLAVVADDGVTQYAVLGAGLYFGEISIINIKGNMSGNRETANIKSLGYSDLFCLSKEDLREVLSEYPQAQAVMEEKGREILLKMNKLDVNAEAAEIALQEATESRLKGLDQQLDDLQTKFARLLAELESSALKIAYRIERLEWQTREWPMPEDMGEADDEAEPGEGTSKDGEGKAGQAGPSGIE
T2 sequence (A0A8I5ZN27 1-858 isoform A0A8I5ZN27-2, stated change not applied): as the sequence (A0A8I5ZN27 1-858 isoform A0A8I5ZN27-2, stated change not applied) above
Description: as §1
(§3) To verify the hypothesis that the CNGB1b subunit in CNGA2:A4:B1b channels binds cyclic nucleotides, we coexpressed CNGB1b with CNGA4RE and either CNGA2RE or CNGA2TM and measured ligand binding in the presence of 10 μM fcGMP. […] To verify the specificity of the binding to the CNGB1b subunit in these heterotetrameric channels, we coexpressed the CNGB1bRE subunit with CNGA2RE and CNGA4RE.
as §2

CNGA2RE:A4RE:B1bRE [2] = biological target: T3, CNGA2RE:A4RE:B1bRE (Rattus norvegicus, UniProt A0A8I5ZN27+Q00195+Q64359, R1106E/R430E/R538E); experiment: Ligand binding, confocal patch-clamp fluorometry; set-up: key to Ligand binding to CNGA4 / Ligand binding to CNGB1b: +: ligand binding to the respective modulatory subunits was either observed or not; −: ligand binding to the respective modulatory subunits was either observed or not
T3 construct: expressed in transfected cells; host or cells: Xenopus laevis oocytes (cRNA injection), excised inside-out patches
T3 sequence (Q00195 whole entry R538E): as the sequence (Q00195 whole entry R538E) above
T3 sequence (Q64359 whole entry R430E): as the sequence (Q64359 whole entry R430E) above
T3 sequence (A0A8I5ZN27 1-858 isoform A0A8I5ZN27-2 R657E): as the sequence (A0A8I5ZN27 1-858 isoform A0A8I5ZN27-2, stated change not applied) above, with R657E counted along it
Description: as §1, §3, §2

CNGA2RE:A4RE:B1b [3] = biological target: T2, CNGA2RE:A4RE:B1b; experiment: Concentration-activation relationship and activation by fluorescent ligands, patch-clamp; assay type: biochemical; settings: 2 μM fHcAMP; of the saturating activation measured with 4 mM cGMP
Protocol: In order to determine the apparent affinity of the modulatory subunits in heterotetrameric CNGA2:A4:B1b channels for cGMP, we coexpressed each of them with disabled neighbored subunits, generating themselves activation effects only at much higher ligand concentrations. In case of two well-separated current components, this would allow us to determine the EC50 value for the CNGB1b and CNGA4 subunit in functional heterotetrameric channels. Patch-clamp experiments were performed using an Axopatch 200B amplifier (Molecular Devices LLC, CA, U.S.A.) in the inside-out configuration. The patch pipettes for recording of macroscopic currents were pulled from borosilicate glass tubing (outer diameter 2.0 mm, inner diameter 1.0 mm; Hilgenberg GmbH, Germany). […] The patches were formed as pushed inside-out patches. […] Cyclic nucleotide concentration jumps were performed using a double-barreled glass pipette mounted on a piezo-driven device. Intracellular (bath) and extracellular (pipette) solutions contained (mM) 150 KCl, 1 EGTA, 5 Hepes, pH = 7.4 with KOH. […] Currents in the absence of the cyclic nucleotide were subtracted. All patches included in this study were first tested for channel expression in the presence of a saturating ligand concentration. Only patches with large current, i.e. a large number of channels, were included in our statistics. The currents were measured at +10 mV or, if mentioned, at +100 mV. Fits of equations to data points were performed with the 8.1G® software (OriginLab Corporation, Northampton, U.S.A.). Concentration-activation relationships were obtained by relating the actual current amplitude, I, to the maximum current amplitude elicited by a saturating concentration of ligand, Imax, and plotting this ratio as function of the ligand concentration, x.

CNGA2:A4:B1b channels = biological target: T4, CNGA2:A4:B1b channels (Rattus norvegicus, UniProt A0A8I5ZN27+Q00195+Q64359); experiment: Concentration-activation relationship, inside-out patch-clamp; assay type: biochemical
T4 construct: expressed in transfected cells; host or cells: Xenopus laevis oocytes (cRNA injection 2:1:1), excised inside-out patches
T4 sequence (Q00195 whole entry): as the sequence (Q00195 whole entry R538E) above, with E538R counted along it
T4 sequence (Q64359 whole entry): as the sequence (Q64359 whole entry R430E) above, with E430R counted along it
T4 sequence (A0A8I5ZN27 1-858 isoform A0A8I5ZN27-2): as the sequence (A0A8I5ZN27 1-858 isoform A0A8I5ZN27-2, stated change not applied) above
Protocol: (§4) Patch-clamp experiments were performed using an Axopatch 200B amplifier (Molecular Devices LLC, CA, U.S.A.) in the inside-out configuration. The patch pipettes for recording of macroscopic currents were pulled from borosilicate glass tubing (outer diameter 2.0 mm, inner diameter 1.0 mm; Hilgenberg GmbH, Germany). The initial resistance was 0.7–1.3 MΩ. The patches were formed as pushed inside-out patches. […] Cyclic nucleotide concentration jumps were performed using a double-barreled glass pipette mounted on a piezo-driven device. Intracellular (bath) and extracellular (pipette) solutions contained (mM) 150 KCl, 1 EGTA, 5 Hepes, pH = 7.4 with KOH. […] Currents in the absence of the cyclic nucleotide were subtracted. All patches included in this study were first tested for channel expression in the presence of a saturating ligand concentration. Only patches with large current, i.e. a large number of channels, were included in our statistics. The currents were measured at +10 mV or, if mentioned, at +100 mV.
Fits of equations to data points were performed with the 8.1G® software (OriginLab Corporation, Northampton, U.S.A.). Concentration-activation relationships were obtained by relating the actual current amplitude, I, to the maximum current amplitude elicited by a saturating concentration of ligand, Imax, and plotting this ratio as function of the ligand concentration, x. The concentration-activation data were fitted using the Hill equation
where EC50 is the ligand concentration of half maximum effect and H the Hill coefficient.
In fHcAMP the dye DY547 is coupled to
(b) Concentration-activation relationships of the CNGA2:A4:B1b channels activated by either
The currents were recorded […]

CNGA2RE:A4RE:B1bRE [4] = biological target: T3, CNGA2RE:A4RE:B1bRE; experiment: Channel activation during confocal patch-clamp fluorometry; assay type: biochemical; settings: 2 μM fHcAMP; binding domain in CNGB1b also disabled
Protocol: as §3
Figure 2 In a CNGA2:A4 background the CNGB1b subunit binds both fcGMP and fHcAMP and activates the channel. (a) Binding of fcGMP to the CNGB1b subunit evokes channel activation. Binding of fcGMP to CNGB1b was observed when coexpressed with either CNGA2RE:A4RE or CNGA2TM:A4RE (upper diagram). […] (b) Binding of fHcAMP to CNGB1b was observed when coexpressed with both CNGA2RE and CNGA4RE. When disabling the binding domain of CNGB1b, the fluorescence intensity was nearly abolished. Correspondingly, CNGA2RE:A4RE:B1b channels were activated by the ligand only when the CNGB1b binding site was available.
as §4, §2

Row | Substance | ligand binding to the CNGB1b subunit (in words) (CNGA2RE:B1b; 10 μM, CNGB1b coexpressed with CNGA2RE) | Ligand binding to CNGB1b (CNGA2RE:B1b; 10 μM) | binding to the CNGB1b subunit (in words) (CNGA2RE:A4RE:B1b [1]; 2 μM fHcAMP, CNGA2RE:A4RE:B1b channels) | Ligand binding to CNGB1b (CNGA2RE:A4RE:B1b [1]; 2 μM, construct CNGA2RE:A4RE:B1b) | binding to the CNGB1b subunit (in words) (CNGA2RE:A4RE:B1bRE [2]; 2 μM fHcAMP, binding domain in CNGB1b also disabled) | Ligand binding to CNGB1b (CNGA2RE:A4RE:B1bRE [2]; 2 μM, construct CNGA2RE:A4RE:B1bRE) | channel activation (CNGA2RE:A4RE:B1b [3]) [%] | EC50 (CNGA2:A4:B1b channels; CNGA2:A4:B1b, steady-state, +10 mV, equation (1), 7-10 patches) [nM] | H (CNGA2:A4:B1b channels; Hill coefficient, CNGA2:A4:B1b, steady-state, +10 mV) | potency to open CNGA2:A4:B1b channels compared to fcAMP (CNGA2:A4:B1b channels; relative to fcAMP) | activation (CNGA2RE:A4RE:B1bRE [4]) | Ligand binding to CNGB1b (CNGA2RE:B1b; 2 μM) | binding to the CNGB1b subunit (in words) (CNGA2RE:B1b; fHcAMP, CNGA2RE:B1b channels)
1 | 8-[DY-547]-AET-cAMP [fcAMP] | no ligand binding | − |  |  |  |  |  |  |  |  |  |  | 
2 | 8-[DY-547]-AHT-cAMP [fHcAMP] |  |  | binds | + | abolished | − | 3.1 ± 0.7 | 590 | 1.2 | eight times higher potency | abolished | − | did not detectably bind
